# Experimental data published in PMC6192554, “In vitro toxicity and efficacy of verdinexor, an exportin 1 inhibitor, on opportunistic viruses affecting immunocompromised individuals” (PLoS ONE, 2018).
# pEC50, pIC50: −log10 of the molar value.
# Legend:
# Human CMV strain AD169 = assay: HCMV yield reduction assay in HFF cells; assay type: cell-based, human cytomegalovirus; conditions: Human betaherpesvirus 5, AD169, HFF
# Experimental: (§1) Human CMV strain AD169 was obtained from ATCC and assayed in human foreskin fibroblast cells (HFF). HFF cells were prepared at the University of Alabama at Birmingham (UAB) tissue procurement facility with IRB approval as previously described. Yield reduction assays for HCMV were performed on monolayers of HFF cells prepared in 96-well plates and incubated at 37°C for 1d to allow the cells to reach confluency. Media was then aspirated from the wells were infected at a high multiplicity of infection (MOI). At 1h following infection, the inocula were removed and the monolayers rinsed with fresh media. Compounds were then diluted in assay media consisting of MEM with Earl’s salts supplemented with 2% FBS, L-glutamine, penicillin, and gentamycin. Solutions ranging from 0.0032–10μM in primary assay and 0.032–100μM in secondary assay were added to the wells and the plates were incubated for various times, depending on the virus used and represents the length of a single replication cycle for the virus. A duplicate set of dilutions were also performed but remained uninfected to serve as a cytotoxicity control and received equal compound exposure. Supernatants from each of the infected wells were subsequently titered in a TCID50 assay to quantify the progeny virus.
# [1] = Cytotoxicity in HFF cells, concurrent with HCMV assays; assay type: cell-based; conditions: human, human foreskin fibroblast cells (HFF)
# Experimental: (§2) Cytotoxicity assays: Concurrent assessment of cytotoxicity was also performed for each study in the same cell line and with the same compound exposure.
# For HCMV cytotoxicity assay was determined via neutral red uptake assay and was conducted as reported previously in HFF cells. Optical densities were determined at 550nm.
# as §1, with “Yield reduction” for “Human CMV strain AD169 was obtained from ATCC and assayed in human foreskin fibroblast cells (HFF). HFF cells were prepared at the University of Alabama at Birmingham (UAB) tissue procurement facility with IRB approval as previously described. Yield reduction”, “progeny virus. […]” for “progeny virus.”
# KSHV strain BCBL-1 = assay: KSHV qPCR of viral DNA in PMA-induced BCBL-1 cells; assay type: cell-based, Kaposi's sarcoma-associated herpesvirus; conditions: Human gammaherpesvirus 8, BCBL1, KSHV
# Experimental: KSHV strain BCBL-1 was obtained as latently infected BCBL-1 cells through the NIH AIDS Research and Reference Reagent Program. BCBL-1 cells were maintained in growth medium consisting of RPMI 1640 supplemented with 10% FBS, penicillin, gentamicin, and l-glutamine.
# To quantify virus, compound was diluted from 0.008–100μM and added to BCBL-1 cells induced to undergo a lytic infection by the addition of 100ng/ml phorbol 12-myristate 13-acetate (PMA) (Promega). After 7d, total DNA was prepared, and viral DNA was quantified by qPCR (see S1 Table for primer/probe sequences). Plasmid pMP218 containing a DNA sequence corresponding to nucleotides 14120–14182 (AF148805.2) was used to provide absolute quantification of viral DNA and EC50 [11].
# [2] = Cytotoxicity in HeLa cells (MTS); assay type: cell-based; conditions: human
# Experimental: Cytotoxicity assays: Concurrent assessment of cytotoxicity was also performed for each study in the same cell line and with the same compound exposure. For AdV cytotoxicity assay, at 6d post-infection plates were stained with tetrazolium-based MTS (CellTiter96 Reagent, Promega) and the microtiter plates were read spectrophotometrically at 490/650nm (Molecular Devices).
# [3] = Cytotoxicity in HFF cells, concurrent with BKPyV assays; assay type: cell-based; conditions: human
# Experimental: Cytotoxicity assays: Concurrent assessment of cytotoxicity was also performed for each study in the same cell line and with the same compound exposure. For KSHV, cell viability was assessed with the CellTiter-Glo Luminescent Cell Viability Assay (Promega) using manufacturer’s protocol. Luminescence was quantified on a luminometer. Standard methods were used to calculate the 50% cytotoxic level (CC50). Cytotoxicity assay was performed in a manner analogous to KSHV above.
# HPV-11 = HPV-11 transient origin-plasmid replication assay in HEK293 cells (qPCR); assay type: cell-based, human papillomavirus; conditions: Human papillomavirus, HPV-11, primary screen
# Experimental: HPV-11 and -18 were tested in HEK293 cells and primary human keratinocytes (PHK), respectively. PHKs were isolated from neonatal foreskins following circumcision according to IRB-approved protocols at UAB. They were grown in keratinocyte serum-free medium (Life Technologies) with mitomycin C-treated J2 feeder cells (Swiss 3T3 J2 fibroblasts; Elaine Fuchs, Rockefeller University). HEK 293 cells were maintained under standard conditions.
# Quantification of virus was determined via transient replication of an HPV-11 replication origin-containing plasmid in HEK293 cells co-transfected with an HPV-11 replicative DNA helicase E1 and origin binding E2 protein [20]. 293 cells were cultured with test compounds added 4hr post-transfection for 2 days. Low molecular weight DNA was isolated, digested with Dpn1 and exonuclease III to eliminate unreplicated DNA. The Dpn1-resistant DNA was then subjected to qPCR analyses amplifying a small portion of the replication origin [20]. In a negative control, the E1 expression vector was omitted or cultures were treated with the inhibitor cidofovir.
# [4] = Cytotoxicity in primary human keratinocytes (PHK); assay type: cell-based; conditions: HPV-18 secondary screen, PHKs
# Experimental: as §2
# HPV cytotoxicity assay was performed at the time of viral harvest by scoring cells in a BioRad Automatic Cell Counter for cell viability.
# For secondary assays, the amplification of HPV-18 DNA was determined in an organotypic squamous epithelial raft culture of PHKs. Whole genomic HPV-18 plasmids were generated in plasmid-transfected PHKs and developed into organotypic cultures as described. Based on the results of a 3-day toxicity assay, concentrations of test compound were added to a subset of raft cultures from day 6 through day 13 when the cultures were harvested. Similarly treated normal PHK raft cultures were also prepared to assess toxicity of uninfected tissue. One set of cultures were fixed in 10% buffered formalin, paraffin embedded and sectioned for in situ assay. Sections were stained with hematoxylin and eosin. Total DNA harvest from unfixed raft cultures was used to determine the HPV-18 copy number/per cell by qPCR. Inhibition was expressed as % of viral DNA copies relative to the untreated cultures.
# histamine H1 receptor = histamine H1 receptor (Homo sapiens, UniProt P35367); assay: Histamine H1 receptor functional activity assay, agonist; assay type: biochemical; conditions: Study No. KS-1017, read-out: IC50 (50% inhibitory concentration)
# diverse panel of viruses = assay: Broad antiviral screening, summary over all viruses; assay type: cell-based; conditions: across the panel of viruses; read-out: median EC50
# Experimental: Each assay was performed in triplicate in 2 independent assays. In some cases different assays were used for the secondary screen, as alternate experimental procedures are able to measure differential effects on the viral life cycle (ie. qPCR for genome replication, plaque reduction for replication, assembly and release, etc.).
# histamine H1 receptor, sequence (P35367 whole entry, species assumed): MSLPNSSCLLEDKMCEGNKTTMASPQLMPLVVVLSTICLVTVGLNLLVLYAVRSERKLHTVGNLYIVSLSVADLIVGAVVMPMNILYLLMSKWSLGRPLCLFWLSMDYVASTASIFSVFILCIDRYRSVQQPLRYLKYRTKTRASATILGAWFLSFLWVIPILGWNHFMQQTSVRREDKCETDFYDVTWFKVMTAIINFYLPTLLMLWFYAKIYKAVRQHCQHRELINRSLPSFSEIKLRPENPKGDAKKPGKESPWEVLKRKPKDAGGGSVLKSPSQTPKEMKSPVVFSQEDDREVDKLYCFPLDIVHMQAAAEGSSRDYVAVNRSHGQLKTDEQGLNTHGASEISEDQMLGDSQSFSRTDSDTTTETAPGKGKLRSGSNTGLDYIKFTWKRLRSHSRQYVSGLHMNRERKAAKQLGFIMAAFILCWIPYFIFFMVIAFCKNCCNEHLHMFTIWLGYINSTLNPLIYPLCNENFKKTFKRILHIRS
compound,measurement,setting,value
"O=C(C=Cn1cnc(-c2cc(C(F)(F)F)cc(C(F)(F)F)c2)n1)NNc1ccccn1 (stereo in doubt) [verdinexor, (E)-3-[3-[3,5-bis(trifluoromethyl)phenyl]-1,2,4-triazol-1-yl]-N'-pyridin-2-ylprop-2-enehydrazide]",pEC50,Human CMV strain AD169; primary screen,6.72
same,pEC50,Human CMV strain AD169; secondary screen,5.60
same,CC50,[1]; HCMV primary screen,1.76 µM
same,CC50,[1]; HCMV secondary screen,73.3 µM
same,pEC50,KSHV strain BCBL-1; primary screen,> 6.10
same,pEC50,KSHV strain BCBL-1; secondary screen,6.57
same,CC50 at 6 d,[2]; Ad5 primary screen,180 nM
same,CC50 at 6 d,[2]; Ad5 secondary screen,100 nM
same,CC50,[3]; BKPyV primary screen,10 µM
same,CC50,[3]; BKPyV secondary screen,9.38 µM
same,pEC50,HPV-11,5.78
same,CC50,[4],8.3 µM
same,pIC50,histamine H1 receptor,< 5.00
same,pEC50,diverse panel of viruses,5.70
